Earlier results as cited in US8034766B2 (priority 2006, dated 2011).

System: prion
Conditions: in vivo

CC(=O)OO [Peracetic acid, peracetic acid]
onward transmission rate following treatment: 100%
